Several values for one entry are separate records, joined by “and”; a condition that tells them apart may be missing. Equal values may be shown once.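 Five concentrations, 48 hours, 96-well plates. GI50 marks 50% less growth. TGI is the concentration that stops growth completely.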
Assays:
Experiment in all cases: NCI-60 cell line screen, 48 h
HL-60(TB) leukemia = test system: HL-60(TB) leukemia
HCT-15 colon = test system: HCT-15 colon
MOLT-4 leukemia = test system: MOLT-4 leukemia
EKVX NSCLC = test system: EKVX NSCLC
SW-620 colon = test system: SW-620 colon
NCI-H522 lung = test system: NCI-H522 lung
A498 renal = test system: A498 renal
RPMI-8226 leukemia = test system: RPMI-8226 leukemia
OVCAR-4 ovarian = test system: OVCAR-4 ovarian
SNB-75 CNS = test system: SNB-75 CNS

COc1cccc(-c2nn(-c3ccccc3)cc2-c2ccnc(NCCNS(=O)(=O)c3ccc(Cl)cc3)c2)c1
GI50 (HL-60(TB) leukemia): 2.56 µM
TGI (HL-60(TB) leukemia): 17.9 µM
GI50 (HCT-15 colon): 3.86 µM
TGI (HCT-15 colon): > 100 µM
GI50 (MOLT-4 leukemia): 2.56 µM
TGI (MOLT-4 leukemia): 9 µM
GI50 (EKVX NSCLC): 3.84 µM
TGI (EKVX NSCLC): > 100 µM
GI50 (SW-620 colon): 5.44 µM
TGI (SW-620 colon): > 100 µM
GI50 (NCI-H522 lung): 2.47 µM
TGI (NCI-H522 lung): 9.76 µM
GI50 (A498 renal): 3.4 µM
TGI (A498 renal): > 100 µM
GI50 (RPMI-8226 leukemia): 2.74 µM
TGI (RPMI-8226 leukemia): 13.3 µM
GI50 (OVCAR-4 ovarian): 4.15 µM
TGI (OVCAR-4 ovarian): > 100 µM
GI50 (SNB-75 CNS): 7.92 µM
TGI (SNB-75 CNS): > 100 µM

CS(=O)(=O)c1ccc(Oc2cc(F)cc(C#N)c2)c2c1[C@H](O)[C@H](F)[C@@H]2F
GI50 (HL-60(TB) leukemia): > 100 µM
TGI (HL-60(TB) leukemia): > 100 µM
GI50 (HCT-15 colon): > 100 µM
TGI (HCT-15 colon): > 100 µM
GI50 (MOLT-4 leukemia): > 100 µM
TGI (MOLT-4 leukemia): > 100 µM
GI50 (EKVX NSCLC): > 100 µM
TGI (EKVX NSCLC): > 100 µM
GI50 (SW-620 colon): > 100 µM
TGI (SW-620 colon): > 100 µM
GI50 (NCI-H522 lung): > 100 µM
TGI (NCI-H522 lung): > 100 µM
GI50 (A498 renal): 4.86 µM
TGI (A498 renal): > 100 µM
GI50 (RPMI-8226 leukemia): > 100 µM
TGI (RPMI-8226 leukemia): > 100 µM
GI50 (OVCAR-4 ovarian): > 100 µM
TGI (OVCAR-4 ovarian): > 100 µM
GI50 (SNB-75 CNS): > 100 µM
TGI (SNB-75 CNS): > 100 µM

CC(O)C1OC(O)C2OC(C)(C)OC12 (centres undefined)
TGI (HL-60(TB) leukemia): > 100 µM
TGI (HCT-15 colon): > 100 µM
TGI (MOLT-4 leukemia): > 100 µM
TGI (EKVX NSCLC): > 100 µM
TGI (SW-620 colon): > 100 µM
TGI (NCI-H522 lung): > 100 µM
TGI (A498 renal): > 100 µM
TGI (RPMI-8226 leukemia): > 100 µM
TGI (OVCAR-4 ovarian): > 100 µM
TGI (SNB-75 CNS): > 100 µM

O=C(Nc1ccc(Cl)c(C(F)(F)F)c1)C(=O)C(C(=O)/C=C/c1ccccc1)C1OC(=O)c2ccccc21 (centres undefined)
TGI (HL-60(TB) leukemia): > 100 µM
TGI (HCT-15 colon): > 100 µM
TGI (MOLT-4 leukemia): > 100 µM
TGI (EKVX NSCLC): > 100 µM
TGI (SW-620 colon): > 100 µM
TGI (NCI-H522 lung): > 100 µM
TGI (A498 renal): > 100 µM
TGI (RPMI-8226 leukemia): > 100 µM
TGI (OVCAR-4 ovarian): > 100 µM
TGI (SNB-75 CNS): > 100 µM

O=C(O)c1ccc(NC(=O)C2C(=O)C(=O)N(c3ccc(C(=O)O)cc3)C2=O)cc1 (centres undefined)
TGI (HL-60(TB) leukemia): > 100 µM
TGI (HCT-15 colon): > 100 µM
TGI (MOLT-4 leukemia): > 100 µM
TGI (EKVX NSCLC): > 100 µM
TGI (SW-620 colon): > 100 µM
TGI (NCI-H522 lung): > 100 µM
TGI (A498 renal): > 100 µM
TGI (RPMI-8226 leukemia): > 100 µM
TGI (OVCAR-4 ovarian): > 100 µM
TGI (SNB-75 CNS): > 100 µM

COC(=O)/C=C/c1cc(O)c2c(c1)C(C(=O)OC)C(c1ccc(O)c(O)c1)O2 (centres undefined)
GI50 (HL-60(TB) leukemia): 0.0845 µM and 0.0298 µM
TGI (HL-60(TB) leukemia): 0.164 µM and 0.106 µM
GI50 (HCT-15 colon): 0.0991 µM
TGI (HCT-15 colon): 68.8 µM and > 100 µM
GI50 (MOLT-4 leukemia): 0.12 µM and 0.0553 µM
TGI (MOLT-4 leukemia): 25.3 µM and 27.8 µM
GI50 (EKVX NSCLC): 0.851 µM and 0.418 µM
TGI (EKVX NSCLC): 78.5 µM and > 100 µM
GI50 (SW-620 colon): 0.108 µM
TGI (SW-620 colon): > 100 µM
GI50 (NCI-H522 lung): 0.0286 µM
TGI (NCI-H522 lung): 3.45 µM and 0.379 µM
GI50 (A498 renal): 2.85 µM and 0.735 µM
TGI (A498 renal): 16.3 µM and 6.21 µM
GI50 (RPMI-8226 leukemia): 0.132 µM
TGI (RPMI-8226 leukemia): 16.5 µM and 10.5 µM
GI50 (OVCAR-4 ovarian): 0.34 µM and 0.353 µM
TGI (OVCAR-4 ovarian): 62.2 µM and > 75.9 µM
TGI (SNB-75 CNS): > 49.7 µM and 64.2 µM

COc1cc(/C=C(/C)[N+](=O)[O-])ccc1O
GI50 (HL-60(TB) leukemia): 2.75 µM
TGI (HL-60(TB) leukemia): 7.01 µM
GI50 (HCT-15 colon): 2.34 µM and 2 µM
TGI (HCT-15 colon): 7.4 µM and 6.21 µM
GI50 (MOLT-4 leukemia): 3.3 µM
TGI (MOLT-4 leukemia): 9.14 µM
GI50 (EKVX NSCLC): 6.55 µM and 2.84 µM
TGI (EKVX NSCLC): 18.7 µM and 14.6 µM
GI50 (SW-620 colon): 1.69 µM and 1.57 µM
TGI (SW-620 colon): 3.67 µM and 3.11 µM
GI50 (NCI-H522 lung): 0.46 µM and 0.282 µM
TGI (NCI-H522 lung): 1.4 µM and 1.09 µM
GI50 (A498 renal): 5.89 µM and 11.6 µM
TGI (A498 renal): 13.7 µM and 23.8 µM
GI50 (RPMI-8226 leukemia): 0.737 µM and 1.73 µM
TGI (RPMI-8226 leukemia): 2.53 µM and 4.25 µM
GI50 (OVCAR-4 ovarian): 2.62 µM and 1.69 µM
TGI (OVCAR-4 ovarian): 7.6 µM and 3.18 µM
GI50 (SNB-75 CNS): 3.64 µM and 1.91 µM
TGI (SNB-75 CNS): 15.1 µM and 8.45 µM

C=C1C(=O)O[C@H]2[C@H]1CC/C(COC(=O)C(=O)c1c[nH]c3ccccc13)=C\CC[C@@]1(C)O[C@@H]21
GI50 (HL-60(TB) leukemia): 1.86 µM
TGI (HL-60(TB) leukemia): 4.67 µM
GI50 (HCT-15 colon): 1.75 µM
TGI (HCT-15 colon): 4.02 µM
GI50 (MOLT-4 leukemia): 2.2 µM
TGI (MOLT-4 leukemia): 7.3 µM
GI50 (EKVX NSCLC): 8.31 µM
TGI (EKVX NSCLC): 20.7 µM
GI50 (SW-620 colon): 3.09 µM
TGI (SW-620 colon): 16.6 µM
GI50 (NCI-H522 lung): 0.878 µM
TGI (NCI-H522 lung): 2.4 µM
GI50 (A498 renal): 8.56 µM
TGI (A498 renal): 20.7 µM
GI50 (RPMI-8226 leukemia): 2.07 µM
TGI (RPMI-8226 leukemia): 10.9 µM
GI50 (OVCAR-4 ovarian): 5.18 µM
TGI (OVCAR-4 ovarian): 25.9 µM
GI50 (SNB-75 CNS): 2.29 µM
TGI (SNB-75 CNS): 11.1 µM

CSC(=S)c1ccc(C(=S)SC)cc1
TGI (HL-60(TB) leukemia): > 100 µM
TGI (HCT-15 colon): > 100 µM
TGI (MOLT-4 leukemia): > 100 µM
TGI (EKVX NSCLC): > 100 µM
TGI (SW-620 colon): > 100 µM
TGI (NCI-H522 lung): > 100 µM
TGI (A498 renal): > 100 µM
TGI (RPMI-8226 leukemia): > 100 µM
TGI (OVCAR-4 ovarian): > 100 µM
TGI (SNB-75 CNS): > 100 µM

O=C(Nc1ccc(S(=O)(=O)Nc2nccs2)cc1)c1cccnc1Nc1cccc(Cl)c1
GI50 (HL-60(TB) leukemia): 24.8 µM
TGI (HL-60(TB) leukemia): 78.9 µM
GI50 (HCT-15 colon): 13.5 µM
TGI (HCT-15 colon): 27.5 µM
GI50 (MOLT-4 leukemia): 12.5 µM
TGI (MOLT-4 leukemia): 88.9 µM
GI50 (EKVX NSCLC): 18.3 µM
TGI (EKVX NSCLC): > 100 µM
GI50 (SW-620 colon): 14.2 µM
TGI (SW-620 colon): 28.7 µM
GI50 (NCI-H522 lung): 11 µM
TGI (NCI-H522 lung): 28.4 µM
GI50 (A498 renal): 10.1 µM
TGI (A498 renal): 23.7 µM
GI50 (RPMI-8226 leukemia): 19.8 µM
TGI (RPMI-8226 leukemia): 89.2 µM
GI50 (OVCAR-4 ovarian): 16.3 µM
TGI (OVCAR-4 ovarian): 69.3 µM
GI50 (SNB-75 CNS): 9.43 µM
TGI (SNB-75 CNS): 51.3 µM

COc1ccc(C(=O)Cn2c(C(=O)c3ccc(OC)cc3)nc3ccccc32)cc1
GI50 (HL-60(TB) leukemia): 0.436 µM
TGI (HL-60(TB) leukemia): 10.8 µM
GI50 (HCT-15 colon): 1.21 µM
TGI (HCT-15 colon): > 100 µM
GI50 (MOLT-4 leukemia): 0.861 µM
TGI (MOLT-4 leukemia): > 100 µM
GI50 (EKVX NSCLC): 18.9 µM
TGI (EKVX NSCLC): > 100 µM
GI50 (SW-620 colon): 0.816 µM
TGI (SW-620 colon): > 100 µM
GI50 (NCI-H522 lung): 2.19 µM
TGI (NCI-H522 lung): > 100 µM
GI50 (A498 renal): 1.64 µM
TGI (A498 renal): > 100 µM
GI50 (RPMI-8226 leukemia): 1.52 µM
TGI (RPMI-8226 leukemia): 8.28 µM
GI50 (OVCAR-4 ovarian): 5.8 µM
TGI (OVCAR-4 ovarian): > 100 µM
GI50 (SNB-75 CNS): 2.16 µM
TGI (SNB-75 CNS): > 54.3 µM

Oc1c(CN2CCC(N3CCOCC3)CC2)cc(Cc2cc(CN3CCC(N4CCOCC4)CC3)c(O)c3ncccc23)c2cccnc12
GI50 (HL-60(TB) leukemia): 0.789 µM
TGI (HL-60(TB) leukemia): 3.71 µM
GI50 (HCT-15 colon): 0.633 µM
TGI (HCT-15 colon): 26.4 µM
GI50 (MOLT-4 leukemia): 0.49 µM
TGI (MOLT-4 leukemia): 12.1 µM
GI50 (EKVX NSCLC): 0.737 µM
TGI (EKVX NSCLC): > 100 µM
GI50 (SW-620 colon): 0.689 µM
TGI (SW-620 colon): > 100 µM
GI50 (NCI-H522 lung): 2.53 µM
TGI (NCI-H522 lung): 9.95 µM
GI50 (A498 renal): 3.74 µM
TGI (A498 renal): 13.9 µM
GI50 (RPMI-8226 leukemia): 3.77 µM
TGI (RPMI-8226 leukemia): > 100 µM
GI50 (OVCAR-4 ovarian): 0.434 µM
TGI (OVCAR-4 ovarian): > 100 µM
GI50 (SNB-75 CNS): 2.57 µM
TGI (SNB-75 CNS): 38.2 µM

Cn1ccnc1C(=O)/C=C/c1ccc(CC(=O)Nc2ccc(Cl)cc2)cc1
GI50 (HL-60(TB) leukemia): 4.81 µM
TGI (HL-60(TB) leukemia): > 25 µM
GI50 (HCT-15 colon): 0.999 µM
TGI (HCT-15 colon): > 25 µM
GI50 (MOLT-4 leukemia): 1.74 µM
TGI (MOLT-4 leukemia): > 25 µM
GI50 (EKVX NSCLC): 15.6 µM
TGI (EKVX NSCLC): > 25 µM
GI50 (SW-620 colon): 1.25 µM
TGI (SW-620 colon): > 25 µM
GI50 (NCI-H522 lung): 4.85 µM
TGI (NCI-H522 lung): > 25 µM
GI50 (A498 renal): > 25 µM
TGI (A498 renal): > 25 µM
GI50 (RPMI-8226 leukemia): 0.959 µM
TGI (RPMI-8226 leukemia): > 25 µM
GI50 (OVCAR-4 ovarian): 2.18 µM
TGI (OVCAR-4 ovarian): > 25 µM
GI50 (SNB-75 CNS): 1.9 µM
TGI (SNB-75 CNS): > 25 µM

Source: PubChem BioAssay (NCI)
